According to paper PMC6017738, “A Comparative Pharmacokinetic Study by UHPLC-MS/MS of Main Active Compounds after Oral Administration of Zushima-Gancao Extract in Normal and Adjuvant-Induced Arthritis Rats” (Molecules : A Journal of Synthetic Chemistry and Natural …, 2018):

Key:
[1] = Pharmacokinetics in normal rats after oral administration of Zushima-Gancao extract (UHPLC-MS/MS of plasma); format: in vivo; details: male, Sprague-Dawley, rat, oral Zushima-Gancao extract 10 mL/kg single dose, n = 6, mean ± SD
Procedure: (§1) The plasma concentration–time curves (C-T curves) of nine analytes are presented in Figure 2, and the corresponding pharmacokinetic parameters, including Cmax, Tmax, AUC (0–t), AUC (0–∞) (AUC: area under concentration-time curve), and t1/2, were obtained using DAS 3.0 pharmacokinetic software (Chinese Pharmacological Association, China). Statistical differences between groups were analyzed using Student’s t-tests, and p-values less than 0.05 were considered statistically significant.
(§2) The chromatography experiment was carried out using a UHPLC system (Thermo Fisher, San Jose, CA, USA), equipped with a Hypersil GOLD C18 column (100 mm × 2.1 mm, 3 μm, Thermo Fisher, San Jose, CA, USA) maintained at 35 °C. The mobile phase consisted of 0.05% formic acid in water (Solvent A) and acetonitrile (Solvent B), and the flow rate was 0.3 mL/min. In order to completely separate all the analytes, the 10 min gradient elution program was used as follows: 0–1 min, 10% B; 1–5 min, 10–90% B; 5–6 min, 90–100% B; 6–8 min, 100% B; 8–9 min, 100–10% B; 9–10 min, 10% B, and the sample injection volume was 3 μL.
(§3) Mass spectrometry detection was operated on TSQ Vantage triple-stage quadrupole mass spectrometer (Thermo Fisher, San Jose, CA, USA) equipped with an electrospray ionization (ESI) source. Quantification of the analytes was performed using selective reaction monitor (SRM) in the negative ionization mode. Spray voltage, sheath gas pressure, auxiliary gas pressure, vaporizer temperature, and capillary temperature were set as 3.0 kV, 45 arb, 25 arb, 450 °C, and 350 °C, respectively.
(§4) Male Sprague–Dawley (SD) rats weighing 180–220 g (SCXK-2012-0002) were supplied by Silaike Lab Animals Ltd. (Shanghai, China). They were all kept in a stable condition (temperature, 22 ± 2 °C; relative humidity, 45–60%) with 12 h light/dark cycles for five days before animal experiments.
(§5) Rats were randomly divided into normal and AA groups with six rats in each group. The arthritic model rats were prepared as our previous research [19]. AA rats were intracutaneously injected with 0.1 mL of FAC in the left hind footpad and normal rats were injected with sterile saline. The FAC solution was prepared as follows: bacillus calmette-guerin (BCG) was bathed in water at 80 °C for 30 min, and then dissolved in a liquid paraffin–lanolin mixture (3:2, v/v). Immediately prior to use, the FAC solution were sterilized for 30 min at 120 °C.
(§6) After model construction, the rats were fed for 20 days. All rats were fasted for 12 h before drug administration, with free access to water. Each rat was administered with Zushima-Gancao extract at a single dose of 10 mL/kg. Blood samples (approximately 0.3 mL) were collected into heparinized micro-centrifuge tubes from the postorbital venous plexus veins of rats at specific time points of 0, 0.08, 0.17, 0.33, 0.5, 1, 2, 3, 5, 8, 12, 24, and 36 h. All blood samples were centrifuged immediately at 5000 rpm for 6 min, and the plasma were obtained and stored at −80 °C until analysis.
(§7) A liquid–liquid extraction (LLE) method was applied to extract the compounds from thawed rat plasma samples, aliquots of 100 μL plasma sample were transferred into a 1.5 mL Eppendorf tube, and 10 μL of methanol, 10 μL of hydrochloric acid (2 mol/L), and 10 μL of IS (130 ng/mL) were added separately. The mixture was vortexed for 30 s, and 500 μL of ethyl acetate was added and mixed by vortexing for 10 min. The supernatant (about 450 μL) was transferred into another tube after centrifugation at 16,000 rpm for 10 min and then evaporated to dryness at 45 °C, 15 kPa in a Thermo SPD1010-230 SpeedVac Concentrator (Thermo Fisher, San Jose, CA, USA). The residue was dissolved in 100 μL of initial mobile phase by vortexing for 5 min, and a further centrifugation at 17,000 rpm for 10 min was applied after the residue was re-dissolved. The supernatant was injected into the UHPLC-MS/MS system for analysis.

[2] = Stability test of analytes in rat plasma (QC samples); format: physicochemical; details: for 24 h Stability RE: autosampler at 4 °C for 24 h; for Short-Term Stability RE: room temperature for 4 h; for Long-Term Stability RE: −80 °C for a week; for Freeze-Thaw Stability RE: three freeze-thaw cycles
Procedure: Stability. To evaluate the stability of each component during analysis, QC samples at low, middle, and high concentrations (three samples for each concentration) were tested under different conditions, including placing QC samples in the autosampler at 4 °C for 24 h, at room temperature for 4 h, at −80 °C for a week, and three freeze-thaw cycles.

[3] = Pharmacokinetics in adjuvant-induced arthritis (AA) rats after oral administration of Zushima-Gancao extract (UHPLC-MS/MS of plasma); details: for AUC(0-inf) / AUC(0-t) / Cmax / Tmax / half-life: male, Sprague-Dawley, rat, plasma, po, 10 mL/kg
Procedure: as §1, §2, §3, §4, §5, §6, §7

[4] = AA rats versus normal rats, oral Zushima-Gancao extract

Row | SMILES | AUC(0-inf) [1] | AUC(0-t) [1] | Cmax [1] | Tmax [1] | half-life [1] | 24 h Stability RE ([2]; high concentration) | Short-Term Stability RE ([2]; high concentration) | Long-Term Stability RE ([2]; high concentration) | 24 h Stability RE ([2]; low concentration) | Short-Term Stability RE ([2]; low concentration) | Long-Term Stability RE ([2]; low concentration) | 24 h Stability RE ([2]; middle concentration) | Short-Term Stability RE ([2]; middle concentration) | Long-Term Stability RE ([2]; middle concentration) | AUC(0-inf) [3] | AUC(0-t) [3] | Cmax [3] | Tmax [3] | half-life [3] | also measured
1 | CC1(C)[C@@H](O)CC[C@]2(C)[C@H]3C(=O)C=C4[C@@H]5C[C@@](C)(C(=O)O)CC[C@]5(C)CC[C@@]4(C)[C@]3(C)CC[C@@H]12 [GA, glycyrrhetinic acid] | 1960 ± 1260 ng·h/mL | 1940 ± 1240 ng·h/mL | 167 ± 93 ng/mL | 8.67 ± 1.63 h | 3.88 ± 1.29 h | 14.35% | 13.05% | 9.57% | 13.49% | 2.08% | 0.04% | 14.1% | −3.38% | 5.44% | 4330 ± 1860 ng·h/mL | 4260 ± 1860 ng·h/mL | 418 ± 296 ng/mL | 9.33 ± 2.07 h | 4.94 ± 2.43 h | increase of AUC (0–∞) in model rats compared to normal rats [3, 4]: 2.2 fold; increase of AUC(0–t) in model rats compared to normal rats [3, 4]: 2.2 fold
2 | O=c1ccc2ccc(O)c(O)c2o1 [DPH, daphnetin] | 256 ± 54.8 ng·h/mL | 246 ± 53.9 ng·h/mL | 214 ± 32.5 ng/mL | 0.24 ± 0.11 h | 3.4 ± 0.96 h | −11.8% | −12.42% | −12.23% | −13.85% | −7.83% | −12.07% | −13.73% | −12.68% | −15% | 167 ± 49 ng·h/mL | 165 ± 49.4 ng·h/mL | 201 ± 108 ng/mL | 0.2 ± 0.07 h | 2.06 ± 0.26 h | Freeze-Thaw Stability RE ([2]; high concentration): −14.04%; Freeze-Thaw Stability RE ([2]; low concentration): −6.29%; Freeze-Thaw Stability RE ([2]; middle concentration): −8.25%; decrease of AUC (0–∞) compared with the normal group [3, 4]: 34.56%; change of t1/2 in AA rats versus normal rats ([3]; AA versus normal rats): remarkable decrease
